Experimental findings from US12351602B2, “Methods of inactivating viral contaminants” (Ichnos Sciences SA, priority 2017, dated 2025) are described below.

SMILES strings stand for the structures.

The test system of this test is MLV. The test is described as follows: VRV study, Arginine treatment of PA eluate. How it is done:
Based on the stability and activity studies reported in Example 1, the most promising viral inactivation methods were further tested for their ability to inactivate viruses. The effectiveness of the viral inactivation was evaluated by doing a spiking study at Bioreliance. Test samples were taken before and after each treatment and analyzed for viral titre. First, VRV study on Arginine treatment was carried out.
Only one virus, MLV, which is a typical model virus used for biological products derived from CHO cell lines such as monoclonal antibody, was used for this study. A total of 7 runs were performed. PA eluate from development runs was used as starting material. Different stock buffers of Arginine at the different pH (pH 4.0, pH 4.75, pH 4.79 and pH 5.5) were used to reach the target pH and concentration. The samples were neutralized using 250 mM Histidine pH 12.0 buffer around pH 6.0 to stop the reaction.
Log reduction values was calculated with respect to the neutralized load sample, a 5 plate large volume plating as well as a standard titration was performed on the t=60 min sample. The neutralized load hold sample was held at 16.0° C. to 20.0° C. for 60 minutes (runs 2, 4 and 6) or 120 minutes (runs 1, 3, 5 and 7).

`N=C(N)NCCC[C@H](N)C(=O)O` [Arginine]: the virus clearance entry (Arginine treatment at pH 4.0) is on record as “effective (“effective”, when RF is greater than 4 log10)”. In addition, the log10 reduction factor entry is recorded as “no reduction” (Run 5, Arginine concentration 0.38, pH 4.79, 120 min) and “no reduction” (Run 7, Arginine concentration 0.8, pH 5.5, 120 min).
